Paper PMC3856698 (Biochemistry, 2013)

How the values were obtained:
VHZ (LDP3) = biological target: T1, VHZ (LDP3) (Homo sapiens, UniProt Q9BVJ7); assay: inhibition of pNPP hydrolysis, competitive model fit; assay type: biochemical
T1 sequence (Q9BVJ7 1-150): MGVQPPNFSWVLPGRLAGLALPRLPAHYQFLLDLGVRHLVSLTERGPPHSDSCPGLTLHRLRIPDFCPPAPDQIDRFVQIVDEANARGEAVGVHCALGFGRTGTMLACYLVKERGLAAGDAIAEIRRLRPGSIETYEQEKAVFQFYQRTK

VHR [1] = biological target: T2, VHR (Homo sapiens, UniProt P51452); assay: pre-steady-state burst kinetics, stopped flow at […] nm; assay type: biochemical; details: read-out: KS
SsoPTP = biological target: T3, SsoPTP (Saccharolobus solfataricus, UniProt Q97VZ7); assay: biochemical
T3 sequence (Q97VZ7 1-161): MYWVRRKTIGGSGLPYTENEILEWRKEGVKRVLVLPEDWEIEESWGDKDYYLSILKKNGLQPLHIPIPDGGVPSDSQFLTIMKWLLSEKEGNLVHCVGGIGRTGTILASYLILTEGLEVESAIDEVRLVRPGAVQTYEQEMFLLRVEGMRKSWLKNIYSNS

VHR [2] = biological target: T2, VHR; assay: biochemical
PTP1B = PTP1B (Homo sapiens, UniProt P18031); assay: biochemical
Sequence of PTP1B (P18031 1-321 limits assumed): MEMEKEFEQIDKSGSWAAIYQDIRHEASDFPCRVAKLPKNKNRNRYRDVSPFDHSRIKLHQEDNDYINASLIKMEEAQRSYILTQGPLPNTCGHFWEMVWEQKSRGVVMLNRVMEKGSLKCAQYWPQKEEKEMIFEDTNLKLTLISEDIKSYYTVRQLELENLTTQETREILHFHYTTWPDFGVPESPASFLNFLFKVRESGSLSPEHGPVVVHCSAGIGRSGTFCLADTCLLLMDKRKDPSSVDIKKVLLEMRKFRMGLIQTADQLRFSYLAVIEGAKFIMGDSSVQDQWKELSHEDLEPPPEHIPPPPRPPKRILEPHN

T2 sequence (P51452 whole entry): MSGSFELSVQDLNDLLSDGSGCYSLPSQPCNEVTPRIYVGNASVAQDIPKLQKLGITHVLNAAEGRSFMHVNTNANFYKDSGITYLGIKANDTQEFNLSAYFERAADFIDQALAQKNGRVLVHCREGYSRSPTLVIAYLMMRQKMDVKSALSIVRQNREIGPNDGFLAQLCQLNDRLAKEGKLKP

O=C(O)CN(CCN(CC(=O)O)CC(=O)O)CC(=O)O [EDTA]
Ki (VHZ (LDP3)): 22 ± 2 mM

[O]=[V]([OH])([OH])[OH] [Vanadate]
Ki (VHZ (LDP3)): 0.0027 ± 0.0003 mM

O=[N+]([O-])c1ccc(OP(=O)(O)O)cc1 [pNPP]
Kd (VHR [1]): 11.8 mM

NC(CO)(CO)CO [Tris]
Ki (VHZ (LDP3)): 88 ± 9 mM

O=S(=O)(O)O [Sulfate]
Ki (VHZ (LDP3)): 4.6 ± 0.3 mM

O=S(=O)(O)CCN1CCN(CCO)CC1 [HEPES]
Ki (VHZ (LDP3)): 26 ± 3 mM

O=P(O)(O)O [Inorganic phosphate]
Ki (VHZ (LDP3)): 0.67 ± 0.05 mM | Ki (YopH): 4.4 ± 0.2 mM | Ki (SsoPTP): 0.54 ± 0.42 mM | Ki (VHR [2]): 0.7 ± 0.3 mM | Ki (PTP1B): 3.7 ± 0.1 mM
